Data reported in patent US20170232059A1, “COMPOSITION COMPRISING OXYTOCIN” (PEP-TONIC MEDICAL AB, priority 2012, published 2017).
Where two headings read alike, the source gives them in different places. Values belong to the compound of their own block, whether it stands above or below them. Starred links: 1 amine or outer side, 2 acyl side, 3 side chain; linkers in the order of their positions; H or OH if unused. Positions of bridges follow the written chain, without caps; N, C: chain ends. Residues, ends and D or L forms follow the SMILES beside them. X1 = O=C(CCC[*:2])[*:1]

Assays:
[1] = in vivo; cited from earlier work
[2] = Blood plasma levels of oxytocin after intravaginal administration (Example 1) and AUC calculation; format: in vivo, human
Procedure: The first value is taken before the treatment of intravaginal oxytocin has started.
Blood samples were collected from 20 individuals before and repeatedly after administration of oxytocin during a 90 minute period. […] (FIG. 2).
The amount of oxytocin which is absorbed following intravaginal administration of oxytocin expressed as area under the curve (AUC) can be calculated using the trapezoid method according to standardized pharmacokinetic procedures as the clearance rat for oxytocin (CL) is known (70 L/H).
As oxytocin levels were only measured during a 90 minute period it had to be assumed that the concentration of oxytocin after 2 hours continues to fall according to the half-life of oxytocin.

[3] = cited from earlier work
[4] = Bioavailability of vaginally administered oxytocin, study OXYPEP002; format: in vivo; settings: human; for level at 0.5 h / level at 1 h / level at 2 h: post-dose; for level at 0.5 h: read-out: Average blood oxytocin level, 30 min Visit 2; for level at 1 h: read-out: Average blood oxytocin level, 60 min Visit 2; for level at 2 h: read-out: Average blood oxytocin level, 120 min Visit 2; for AUC(0-t): read-out: AUC0-30 min
Procedure: The objective of the present analysis was to estimate the bioavailability of oxytocin following vaginal administration of 100 (170 μg) or 400 IU (680 μg) oxytocin vaginal gel using data from study OXYPEP002 (Clinical trial protocol OXYPEP002). The oxytocin vaginal gel is Vagitocin® gel.
Data from study OXYPEP002 was used for the analysis. Study OXYPEP002 was conducted with the primary objective to investigate the dose-relationship of topical Vagitocin on the vaginal mucosal membrane (Clinical trial protocol OXYPEP002). OXYPEP002 was a double-blind, randomized, placebo controlled trial, with a parallel group design. Vagitocin (oxytocin gel) in two different doses (100 IU and 400 IU) was administered topically once daily during 7 weeks. A placebo gel with the same composition was used as comparator. In total 64 patients were to be included in the study. At the baseline visit (visit 1), blood sampling for oxytocin analysis were drawn for the first 24 included subjects. This sample represents the true baseline oxytocin observation. For the same 24 subjects, blood sampling for oxytocin analysis were also drawn at visit 2 (2 weeks ±2 days) with sampling pre-dose and at 30 min, 60 min and 120 min post-dose. Only subjects that completed the full sampling schedule were included in the analysis. The calculations were based on average blood oxytocin measurements for each dose level and sampling time point (Table 2).
The systemic oxytocin exposure following vaginally administered oxytocin was assessed by calculating the area under the blood concentration versus time curve (AUC) according to the trapezoidal rule. The data from visit 2 were used where the pre-dose sample was assumed to represent a new baseline observation.
The blood concentration of oxytocin had not returned to the baseline observation at the lasts sampling time point (120 min post-dose).
The endogenous oxytocin level (AUCbaseline) was calculated and subtracted from the total AUC to achieve the oxytocin exposure following the vaginally administered dose (AUCvaginal).
The bioavailability was calculated according to equation 1. As no intravenous dose was administered in study OXYPEP002, AUCiv was calculated according to available information in the literature (De Groot A N et al. 1995, Amico J A et al. 1987, Dawood M Y et al. 1980) according to equation 2.

[5] = Skin penetration in Franz diffusion cells; format: in vitro ADME, pig; settings: for share that has penetrated the skin: of 200 IU (approx. 0.4 mg)
Procedure: Skin penetration was performed in Franz diffusion cells using dermatomed pig's ear skin (thickness approx. 500 μm and surface area 0.64 cm^2). The receptor volume of each cell was 6 mL and citrate buffer, pH 4.5 was used as receptor media. The temperature was maintained at 32° C. and the stirring speed in the receptor chamber was kept at 300 rpm. Sampling was done in triplicate at 24 hours intervals for 4 days, i.e. 24, 48, 72 and 96 h. 1.5 mL of receptor media was taken and replaced with the same volume of citrate buffer. Immediately after collection the samples were kept at −20° C.
A water solution of oxytocin was prepared in a concentration of 4000 IU/g, which corresponds to ca 6.8 mg/g. The solution was pH adjusted with a 50 mM citrate buffer to 4.0 in order to achieve reasonable chemical stability. The oxytocin solutions were added in excess, ca 1 g, on the donor side of the skin and covered to prevent evaporation.
The samples were thawed just prior analysis by HPLC, method M272-0. The limit of quantification (QL) is 12.5 ng/mL or 1.25 ng injected amount.

[6] = six male subjects, intravenous 1 IU (De Groot 1995)

Compound: CC[C@H](C)[C@@H]1NC(=O)[C@H](Cc2ccc(OC)cc2)NC(=O)CCCSC[C@@H](C(=O)N2CCC[C@H]2C(=O)N[C@@H](CC(C)C)C(=O)NCC(N)=O)NC(=O)[C@H](CC(N)=O)NC(=O)[C@H](CCC(N)=O)NC1=O [carbetocin] (Y(Me)IQNCPLG-NH2; linker N-5 via X1)
half-life relative to oxytocin [1]: about three times longer

fraction of the given dose absorbed ([2]; 100 IU intravaginal): 0.064
plasma oxytocin levels at 15, 30, 60 and 90 minutes after administration ([2]; 100 and 400 IU intravaginal, FIG. 2): elevated in a pulse like fashion
fraction of the given dose absorbed ([2]; 400 IU intravaginal): 0.11
plasma levels of oxytocin ([2]; following 100 and 400 IU intravaginal, 90 minute period): rose dose dependently
absorbed via the epithelial membrane into the blood stream ([2]; topical composition comprising a non-ionic cellulose ether): about 10%
AUC ([4]; female, blood, 100 IU, 100 IU vaginal, read-out: AUC30-60 min): 0.0633 ng·h/mL
AUC ([4]; female, blood, 100 IU, 100 IU vaginal, read-out: AUC60-120 min): 0.11 ng·h/mL
AUC ([4]; female, blood, 100 IU, 100 IU vaginal, residual area alternative i, read-out: AUCresidual): 0.346 ng·h/mL
AUC ([4]; female, blood, 100 IU, 100 IU vaginal, residual area alternative i, read-out: AUCvaginal): 0.299 ng·h/mL
bioavailability ([4]; female, blood, 100 IU, 100 IU vaginal, residual area alternative i, read-out: Bioavailability): 12%
AUC ([4]; female, blood, 100 IU, 100 IU vaginal, residual area alternative ii, read-out: AUCresidual): 0.0322 ng·h/mL
AUC ([4]; female, blood, 100 IU, 100 IU vaginal, residual area alternative ii, read-out: AUCvaginal): 0.156 ng·h/mL
bioavailability ([4]; female, blood, 100 IU, 100 IU vaginal, residual area alternative ii, read-out: Bioavailability): 6.4%
AUC ([4]; female, blood, 400 IU, 400 IU vaginal, read-out: AUC30-60 min): 0.362 ng·h/mL
AUC ([4]; female, blood, 400 IU, 400 IU vaginal, read-out: AUC60-120 min): 0.504 ng·h/mL
AUC ([4]; female, blood, 400 IU, 400 IU vaginal, residual area alternative i, read-out: AUCresidual): 0.783 ng·h/mL
AUC ([4]; female, blood, 400 IU, 400 IU vaginal, residual area alternative i, read-out: AUCvaginal): 1.53 ng·h/mL
bioavailability ([4]; female, blood, 400 IU, 400 IU vaginal, residual area alternative i, read-out: Bioavailability): 16%
AUC ([4]; female, blood, 400 IU, 400 IU vaginal, residual area alternative ii, read-out: AUCresidual): 0.193 ng·h/mL
AUC ([4]; female, blood, 400 IU, 400 IU vaginal, residual area alternative ii, read-out: AUCvaginal): 1.1 ng·h/mL
bioavailability ([4]; female, blood, 400 IU, 400 IU vaginal, residual area alternative ii, read-out: Bioavailability): 11%
bioavailability ([4]; female, blood, vaginal, 100 and 400 IU, read-out: bioavailability, range over both dose levels and alternatives): 6.4 to 16%
level at 0.5 h ([4]; female, blood, 100 IU vaginal): 0.133 ng/mL
level at 1 h ([4]; female, blood, 100 IU vaginal): 0.12 ng/mL
level at 2 h ([4]; female, blood, 100 IU vaginal): 0.099 ng/mL
AUC(0-t) ([4]; female, blood, 100 IU vaginal): 0.0426 ng·h/mL
level at 0.5 h ([4]; female, blood, 400 IU vaginal): 0.816 ng/mL
level at 1 h ([4]; female, blood, 400 IU vaginal): 0.63 ng/mL
level at 2 h ([4]; female, blood, 400 IU vaginal): 0.378 ng/mL
AUC(0-t) ([4]; female, blood, 400 IU vaginal): 0.219 ng·h/mL
AUC ([4]; in vivo, iv, 1 ug, AUCiv, assumed intravenous dose of 1 μg and a CL of 70 L/h): 0.0143 ng·h/mL
share that has penetrated the skin ([5]; after 24 h): 0.1%
oxytocin penetrated into receptor ([5]; after 24 h, 4000 IU/g water solution): 0.6 µg
share that has penetrated the skin ([5]; after 96 h): ~1%
oxytocin detected in the receptor chamber ([5]; after 96 hours, 4000 IU/g citrate buffered water solution, pH 4.0, 32° C.): 4 µg
Compound: CC[C@H](C)[C@@H]1NC(=O)[C@H](Cc2ccc(O)cc2)NC(=O)[C@@H](N)CSSC[C@@H](C(=O)N2CCC[C@H]2C(=O)N[C@@H](CC(C)C)C(=O)NCC(N)=O)NC(=O)[C@H](CC(N)=O)NC(=O)[C@H](CCC(N)=O)NC1=O [oxytocin, Cys-Tyr-Ile-Gln-Asn-Cys-Pro-Leu-Gly-NH2]
plasma oxytocin value obtained 10 hours after treatment ([2]; intravaginal, FIG. 2, vs before treatment): higher than those observed before treatment was started
CL ([3]; healthy male subjects (Amico 1987, Dawood 1980)): 70 to 90 L/h
clearance rate (CL) ([3]; known value used for AUC calculation): 70 L/H
terminal elimination half-life (t1/2) [3, 6]: 19.8 min
volume of distribution (V) [3, 6]: 33.2 L
total body CL ([3]; six male subjects, intravenous dose of 1 IU (1.7 μg), two-compartment model (De Groot 1995)): 67.1 L/h
half-life [1]: about 30 min
